From PubChem BioAssay AID877 (University of Pittsburgh Molecular Library Screening Center, 2007)
Active and inactive are the calls of the source. No rule for the calls is given here.

Target: Serine/threonine-protein kinase PLK1 (Homo sapiens) (UniProt P53350)
Experiment: Plk1 polo box domain binding inhibitors, dose response, biochemical, fluorescence polarization (AID 877)
Settings: Plk1 PBD phosphopeptide binding

Serine/threonine-protein kinase PLK1 (Homo sapiens), sequence (P53350 whole entry, looked up, the tested form may be a part): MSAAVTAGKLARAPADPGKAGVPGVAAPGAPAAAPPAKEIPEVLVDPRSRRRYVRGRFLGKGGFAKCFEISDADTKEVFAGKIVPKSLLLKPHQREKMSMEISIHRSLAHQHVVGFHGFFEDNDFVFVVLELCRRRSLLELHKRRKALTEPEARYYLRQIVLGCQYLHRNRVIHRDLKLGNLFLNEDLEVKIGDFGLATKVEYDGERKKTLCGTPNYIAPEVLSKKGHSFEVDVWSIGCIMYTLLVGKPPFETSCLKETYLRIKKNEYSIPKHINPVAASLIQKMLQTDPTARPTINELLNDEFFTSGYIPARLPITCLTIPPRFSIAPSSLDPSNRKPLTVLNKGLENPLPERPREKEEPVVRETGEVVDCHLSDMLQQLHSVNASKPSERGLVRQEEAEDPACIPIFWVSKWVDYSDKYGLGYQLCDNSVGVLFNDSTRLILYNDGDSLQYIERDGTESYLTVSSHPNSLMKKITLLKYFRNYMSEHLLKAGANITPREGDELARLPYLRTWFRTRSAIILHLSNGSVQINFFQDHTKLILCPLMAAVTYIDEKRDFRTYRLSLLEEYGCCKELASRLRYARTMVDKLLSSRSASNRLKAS

IC50	Compound
> 50 µM (inactive)	O=C(O)COc1ccc(Br)cc1/C=N/O
> 50 µM (inactive)	O=C1C(C2=C(O)c3ccccc3C2=O)=Nc2ccccc21
> 50 µM (inactive)	CCC(Sc1nc2n[nH]c(C)c2c(=N)n1-c1cccc(Cl)c1)C(=O)NCCOC (stereo not drawn)
